From patent publication US20230406831A1, “COMPOUNDS AND METHODS OF INHIBITING BACTERIAL CHAPERONIN SYSTEMS” (THE TRUSTEES OF INDIANA UNIVERSITY, priority 2020, published 2023) come the findings set out here.

The structures appear in SMILES notation.

T1 sequence (P0A6F5 2-548): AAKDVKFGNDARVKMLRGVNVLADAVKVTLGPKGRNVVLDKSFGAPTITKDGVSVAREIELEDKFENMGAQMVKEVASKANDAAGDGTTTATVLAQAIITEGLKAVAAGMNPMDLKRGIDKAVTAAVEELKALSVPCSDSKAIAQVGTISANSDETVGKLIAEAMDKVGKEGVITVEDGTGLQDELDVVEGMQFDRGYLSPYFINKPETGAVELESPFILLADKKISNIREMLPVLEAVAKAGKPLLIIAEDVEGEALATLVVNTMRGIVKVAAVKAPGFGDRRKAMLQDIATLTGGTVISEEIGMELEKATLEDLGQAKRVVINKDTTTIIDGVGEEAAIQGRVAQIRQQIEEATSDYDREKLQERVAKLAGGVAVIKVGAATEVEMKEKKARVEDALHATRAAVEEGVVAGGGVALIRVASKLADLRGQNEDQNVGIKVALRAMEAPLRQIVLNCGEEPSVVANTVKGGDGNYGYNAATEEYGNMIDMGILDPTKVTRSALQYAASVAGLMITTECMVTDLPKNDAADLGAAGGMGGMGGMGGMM

The first experiment has as its target T1, GroEL/ES (Escherichia coli, UniProt P0A6F5).
T1 construct: made in house; host or cells: GroEL in E. coli DH5a; GroES in E. coli BL21 (DE3)
Nature of the experiment: GroEL/ES-mediated dMDH refolding assay. It counts as biochemical, E. coli.
Conditions: not given
A digest of the protocol: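 Pre-formed chaperonin–denatured pig heart MDH complexes (50 nM GroEL or HSP60, 60 nM GroES or HSP10, 12 nM dMDH) refolded with 1 mM ATP and compound (100 μM–46 nM) at 37 °C, ~20-40 min for GroEL/ES or ~40-60 min for HSP60/10. After EDTA quench, MDH activity was read as NADH loss at A340. IC50 came from variable-slope regression.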
Consider `COc1ccc(Cl)cc1C(=O)Nc1ccc(Oc2ccccc2)c(Cl)c1` [Compound 90, 5-chloro-N-(3-chloro-4-phenoxyphenyl)-2-methoxybenzamide], for which the IC50 is > 100 µM.
In turn, `O=C(Nc1ccc(Oc2ccccc2)c(Cl)c1)c1cc(Cl)ccc1O` [Compound 91, 5-chloro-N-(3-chloro-4-phenoxyphenyl)-2-hydroxybenzamide] registered an IC50 of 51 µM.
In the case of `COc1ccc(Cl)cc1C(=O)Nc1ccc(Oc2ccccc2)cc1` [Compound 92, 5-chloro-2-methoxy-N-(4-phenoxyphenyl)benzamide], the IC50 was > 100 µM.
The same measure, in the same setting: in the case of `O=C(Nc1ccc(Oc2ccccc2)cc1)c1cc(Cl)ccc1O` [Compound 93, 5-chloro-2-hydroxy-N-(4-phenoxyphenyl)benzamide] it was 68 µM; in that of `COc1ccc(Cl)cc1C(=O)Nc1ccc(Sc2nc3ccccc3s2)c(Cl)c1` [Compound 94, N-(4-(benzo[d]thiazol-2-ylthio)-3-chlorophenyl)-5-chloro-2-methoxybenzamide], 61 µM.
On the same count and under the same terms, to `O=C(Nc1ccc(Sc2nc3ccccc3s2)c(Cl)c1)c1cc(Cl)ccc1O` [Compound 95, N-(4-(benzo[d]thiazol-2-ylthio)-3-chlorophenyl)-5-chloro-2-hydroxybenzamide] belongs 21 µM; to `COc1ccc(Cl)cc1C(=O)Nc1ccc(Sc2nc3ccccc3s2)cc1` [Compound 96, N-(4-(benzo[d]thiazol-2-ylthio)phenyl)-5-chloro-2-methoxybenzamide], 59 µM.
With `O=C(Nc1ccc(Sc2nc3ccccc3s2)cc1)c1cc(Cl)ccc1O` [Compound 97, N-(4-(benzo[d]thiazol-2-ylthio)phenyl)-5-chloro-2-hydroxybenzamide], the IC50 came to 24 µM.
On the same count and under the same terms, in the case of `COc1ccc(Cl)cc1C(=O)Nc1ccc(Cc2ccccc2)cc1` [Compound 98, N-(4-benzylphenyl)-5-chloro-2-methoxybenzamide] it was > 100 µM.
In turn, `O=C(Nc1ccc(Cc2ccccc2)cc1)c1cc(Cl)ccc1O` [Compound 99, N-(4-benzylphenyl)-5-chloro-2-hydroxybenzamide] came in with an IC50 of 77 µM.
Regarding `COc1ccc(Cl)cc1C(=O)Nc1ccc(CCc2ccccc2)cc1` [Compound 100, 5-chloro-2-methoxy-N-(4-phenethylphenyl)benzamide], the IC50 was > 100 µM.
Same read-out and setting: to `O=C(Nc1ccc(CCc2ccccc2)cc1)c1cc(Cl)ccc1O` [Compound 101] belongs 54 µM; to `COc1ccc(Cl)cc1C(=O)Nc1ccc(OCc2ccccc2)cc1` [Compound 102, N-(4-(benzyloxy)phenyl)-5-chloro-2-methoxybenzamide], > 100 µM.
Still for that read-out and setting: to `O=C(Nc1ccc(OCc2ccccc2)cc1)c1cc(Cl)ccc1O` [Compound 103, N-(4-(benzyloxy)phenyl)-5-chloro-2-hydroxybenzamide] belongs 44 µM.
As for `COc1ccc(Cl)cc1C(=O)Nc1ccc(NC(C)=O)cc1` [Compound 104, N-(4-acetamidophenyl)-5-chloro-2-methoxybenzamide], the IC50 is > 100 µM.
Still for that read-out and setting: to `CC(=O)Nc1ccc(NC(=O)c2cc(Cl)ccc2O)cc1` [Compound 105, N-(4-acetamidophenyl)-5-chloro-2-hydroxybenzamide] belongs > 100 µM.
Take `COC(=O)c1ccc(NC(=O)c2cc(Cl)ccc2OC)cc1` [Compound 106, methyl 4-(5-chloro-2-methoxybenzamido)benzoate]: the IC50 stood at 46 µM.
`COC(=O)c1ccc(NC(=O)c2cc(Cl)ccc2O)cc1` [Compound 107, methyl 4-(5-chloro-2-hydroxybenzamido)benzoate] gave an IC50 of 83 µM.
Turning to `COc1ccc(Cl)cc1C(=O)Nc1ccc(C(=O)O)cc1` [Compound 108, 4-(5-chloro-2-methoxybenzamido)benzoic acid], the IC50 was > 100 µM.
Compound `COc1ccc(Cl)cc1C(=O)Nc1ccc(CC#N)cc1` [Compound 110, 5-chloro-N-(4-(cyanomethyl)phenyl)-2-methoxybenzamide] yielded an IC50 of 54 µM.
As for `N#CCc1ccc(NC(=O)c2cc(Cl)ccc2O)cc1` [Compound 111, 5-chloro-N-(4-(cyanomethyl)phenyl)-2-hydroxybenzamide], the IC50 is > 100 µM.
Consider `COc1ccc(NC(=O)c2cc(Cl)ccc2OC)cc1` [Compound 112, 5-chloro-2-methoxy-N-(4-methoxyphenyl)benzamide], for which the IC50 was > 100 µM.
Still for that read-out and setting: in the case of `COc1ccc(NC(=O)c2cc(Cl)ccc2O)cc1` [Compound 113, 5-chloro-2-hydroxy-N-(4-methoxyphenyl)benzamide] it was > 100 µM; in that of `COc1ccc(Cl)cc1C(=O)Nc1ccc(O)cc1` [Compound 114, 5-chloro-N-(4-hydroxyphenyl)-2-methoxybenzamide], > 100 µM; in that of `O=C(Nc1ccc(O)cc1)c1cc(Cl)ccc1O` [Compound 115, 5-chloro-2-hydroxy-N-(4-hydroxyphenyl)benzamide], > 100 µM.
Turning to `COc1ccc(Cl)cc1C(=O)Nc1ccccc1` [Compound 116, 5-chloro-2-methoxy-N-phenylbenzamide], the IC50 was > 100 µM.
As to `O=C(Nc1ccccc1)c1cc(Cl)ccc1O` [Compound 117, 5-chloro-2-hydroxy-N-phenylbenzamide], the IC50 was > 100 µM.
Take `O=C(Nc1ccc([N+](=O)[O-])cc1Cl)c1cc(Cl)ccc1O` [Niclosamide, reference compound]: the IC50 was > 100 µM.
The same measure, in the same setting: to `CC(=O)Oc1ccccc1C(=O)Nc1ncc([N+](=O)[O-])s1` [Nitazoxanide, reference compound] belongs > 100 µM.
`O=C(Nc1cc(Cl)cc(Cl)c1O)c1c(O)c(Cl)cc(Cl)c1Cl` [Oxyclosanide, reference compound] registered an IC50 of 45 µM.
With `O=C(Nc1ncc([N+](=O)[O-])s1)c1ccccc1O` [Tizoxanide, reference compound], the IC50 was > 100 µM.

The same experiment, now with this note: Table 1; 37° C., 1 mM ATP; read-out: Biochemical Assay IC50 GroEL/ES-dMDH Refolding.
`O=C(Nc1ccc(Oc2ccc(Cl)cc2)c(Cl)c1)c1cc(I)cc(I)c1O` [Rafoxanide, reference compound]: the IC50 came to 3.8 µM.

Staying with this experiment, now noted: read-out: Biochemical Assay IC50 GroEL/ES-dMDH Refolding; Table 3; 37° C., 1 mM ATP.
As to `O=C(Nc1ccc([N+](=O)[O-])cc1Cl)c1cc(Cl)ccc1O` [Niclosamide, reference compound], the IC50 is > 100 µM.
